One assay concerns RSV-A2-GFP virus. Briefly: microbe, parasite or virus in culture. It counts as cell-based, Human Respiratory Syncytial Virus. In short, it runs like this: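 Assay-ready frozen Calu-1 cells at 20,000 cells/mL were infected with recombinant RSV-A2-GFP (MOI 1.2) in DMEM with 2% FBS. Cells were exposed to 10-point 3-fold compound dilutions for 96 h at 37° C. GFP-positive cells were counted by imaging, with same-well CellTiter-Glo for cytotoxicity, and IC50 and CC50 came from 4-parameter logistic fits.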

For the next assay, the system named is hMPV-GFP virus. Briefly: microbe, parasite or virus in culture. Type of assay: cell-based, human metapneumovirus. A digest of the protocol: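 VERO cells infected with GFP-expressing hMPV at MOI 1.25 were incubated 48 h at 37 °C with compound in 10-point 3-fold dilutions (typically 40,300–2 nM final). GFP-positive cells were counted by imaging. Same-well CellTiter-Glo gave cytotoxicity, and IC50/CC50 came from 4-parameter logistic fits.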

The mark [1] stands for this setting: Calu-1 cells infected with RSV-A2-GFP, 96 hrs, GFP-expressing cells counted, read-out: RSV EC50.
The mark [2] stands for this setting: VERO cells infected with hMPV-GFP, 48 hrs, GFP-expressing cells counted, read-out: hMPV EC50.
Where [3] appears, read: human respiratory syncytial virus, Calu-1, 96 h, read-out: RSV EC50, Calu-1 cells infected with RSV-A2-GFP, 96 hrs, GFP-expressing cells counted.
[4] abbreviates: human metapneumovirus, Vero, 48 h, read-out: hMPV EC50, VERO cells infected with hMPV-GFP, 48 hrs, GFP-expressing cells counted.

As usually defined, the EC50 is the concentration at which the effect is half-maximal.

Where two headings read alike, the source gives them in different places.

`Cc1cccc(-c2cc(C(=O)N3C[C@@H]4[C@H](C3)[C@H]4Oc3cc(C(C)(C)N)cc(-c4ccc(F)cc4)n3)n(C)n2)n1` [Example 51, ((1R,5S,6s)-6-((4-(2-aminopropan-2-yl)-6-(4-fluorophenyl)pyridin-2-yl)oxy)-3-azabicyclo[3.1.0]hexan-3-yl)(1-methyl-3-(6-methylpyridin-2-yl)-1H-pyrazol-5-yl)methanone]: the EC50 in the assay with RSV-A2-GFP virus (setting [1]) was less than 10 nM; with hMPV-GFP virus (setting [2]), more than 100 nM.
Regarding `Cc1nc(-c2ncccn2)sc1C(=O)N1C[C@H]2[C@H](Oc3cc(C(C)(C)N)cc(-c4ccc(F)cc4)n3)[C@@]2(C)C1` (single isomer, unassigned; enantiomer 1) [Example 103A], the results for the EC50 with RSV-A2-GFP virus (setting [3]) and in the assay on hMPV-GFP virus (setting [4]) were less than 10 nM and 10 to 100 nM, respectively.
For the compound `Cc1cc(F)ccc1-c1cc(C(C)(C)N)cc(O[C@H]2[C@@H]3CN(C(=O)c4sc(-c5ncccn5)nc4C)C[C@@H]32)n1` [Example 39, ((1R,5S,6s)-6-((4-(2-aminopropan-2-yl)-6-(4-fluoro-2-methylphenyl)pyridin-2-yl)oxy)-3-azabicyclo[3.1.0]hexan-3-yl)(4-methyl-2-(pyrimidin-2-yl)thiazol-5-yl)methanone], the EC50 was less than 10 nM with RSV-A2-GFP virus (setting [1]) and 10 to 100 nM with hMPV-GFP virus (setting [2]).
Taken in the same sequence, the figures for `CC(C)(N)c1cc(O[C@H]2[C@@H]3CN(C(=O)c4cn(-c5ncccn5)nc4OC(F)F)C[C@@H]32)nc(-c2ccc(F)cc2)c1` [Example 69, ((1R,5S,6s)-6-((4-(2-aminopropan-2-yl)-6-(4-fluorophenyl)pyridin-2-yl)oxy)-3-azabicyclo[3.1.0]hexan-3-yl)(3-(difluoromethoxy)-1-(pyrimidin-2-yl)-1H-pyrazol-4-yl)methanone] were less than 10 nM and more than 100 nM.
Take `Cc1nc(-c2ncccn2)oc1C(=O)N1C[C@@H]2[C@H](C1)[C@H]2Oc1cc(C(C)(C)N)cc(-c2ccc(F)cc2)n1` [Example 78, ((1R,5S,6s)-6-((4-(2-aminopropan-2-yl)-6-(4-fluorophenyl)pyridin-2-yl)oxy)-3-azabicyclo[3.1.0]hexan-3-yl)(4-methyl-2-(pyrimidin-2-yl)oxazol-5-yl)methanone]: the EC50 is 10 to 100 nM with RSV-A2-GFP virus (setting [3]) and more than 100 nM in the assay on hMPV-GFP virus (setting [4]).
Take `CCC(C)(N)c1cc(OC2[C@H]3CN(C(=O)c4cn(-c5ncccn5)nc4C)C[C@@H]23)nc(-c2ccc(F)cc2)c1` (single isomer, unassigned; enantiomer 2) [Example 116B]: the results for the EC50 in the assay on RSV-A2-GFP virus (setting [1]) and in the assay with hMPV-GFP virus (setting [2]) were less than 10 nM and more than 100 nM, respectively.
In the case of `CC(C)(N)c1cc(O[C@H]2[C@@H]3CN(C(=O)c4cn(-c5ncccn5)nc4C(F)F)C[C@@H]32)nc(-c2ccc(F)c(F)c2)c1` [Example 91, ((1R,5S,6s)-6-((4-(2-aminopropan-2-yl)-6-(3,4-difluorophenyl)pyridin-2-yl)oxy)-3-azabicyclo[3.1.0]hexan-3-yl)(3-(difluoromethyl)-1-(pyrimidin-2-yl)-1H-pyrazol-4-yl)methanone], the EC50 was less than 10 nM with RSV-A2-GFP virus (setting [1]) and more than 100 nM with hMPV-GFP virus (setting [2]).
For `Cn1nc(-c2ncccn2)cc1C(=O)N1C[C@@H]2[C@H](C1)[C@H]2Oc1cc(C(C)(C)N)cc(-c2ccc3c(c2)CC3(F)F)n1` [Example 98, ((1R,5S,6s)-6-((4-(2-aminopropan-2-yl)-6-(7,7-difluorobicyclo[4.2.0]octa-1(6),2,4-trien-3-yl)pyridin-2-yl)oxy)-3-azabicyclo[3.1.0]hexan-3-yl)(1-methyl-3-(pyrimidin-2-yl)-1H-pyrazol-5-yl)methanone], in that order: less than 10 nM and more than 100 nM.
As to `Cc1nc(-c2ncccn2)sc1C(=O)N1C[C@H]2[C@H](Oc3cc(C(C)(C)N)cc(-c4ccc(F)cc4)n3)[C@@]2(C)C1` (single isomer, unassigned; enantiomer 2) [Example 103B], the EC50 in the assay with RSV-A2-GFP virus (setting [3]) was less than 10 nM; in the assay with hMPV-GFP virus (setting [4]), 10 to 100 nM.
`Cc1nc(-c2ncccn2)sc1C(=O)N1C[C@@H]2[C@H](C1)[C@H]2Oc1cc(C(C)(C)N)cc(-c2ccc(OC(F)F)cc2)n1` [Example 24, ((1R,5S,6s)-6-((4-(2-aminopropan-2-yl)-6-(4-(difluoromethoxy)phenyl)pyridin-2-yl)oxy)-3-azabicyclo[3.1.0]hexan-3-yl)(4-methyl-2-(pyrimidin-2-yl)thiazol-5-yl)methanone]: the EC50 was less than 10 nM with RSV-A2-GFP virus (setting [1]) and 10 to 100 nM in the assay with hMPV-GFP virus (setting [2]).
Taken in the same sequence, the figures for `Cc1nc(-c2ncccn2)sc1C(=O)N1C[C@@H]2[C@H](C1)[C@H]2Oc1cc(C(C)(C)N)cc(-c2ccc(C(F)(F)F)cc2)n1` [Example 27, ((1R,5S,6s)-6-((4-(2-aminopropan-2-yl)-6-(4-(trifluoromethyl)phenyl)pyridin-2-yl)oxy)-3-azabicyclo[3.1.0]hexan-3-yl)(4-methyl-2-(pyrimidin-2-yl)thiazol-5-yl)methanone] were less than 10 nM and 10 to 100 nM.
In the case of `Cc1nn(-c2ncccn2)cc1C(=O)N1C[C@@H]2[C@H](C1)[C@H]2Oc1cc(C(C)(C)N)cc(-c2ccc(F)c(F)c2)n1` [Example 80, ((1R,5S,6s)-6-((4-(2-aminopropan-2-yl)-6-(3,4-difluorophenyl)pyridin-2-yl)oxy)-3-azabicyclo[3.1.0]hexan-3-yl)(3-methyl-1-(pyrimidin-2-yl)-1H-pyrazol-4-yl)methanone], the EC50 in the assay with RSV-A2-GFP virus (setting [3]) was less than 10 nM; in the assay on hMPV-GFP virus (setting [4]), 10 to 100 nM.
For `Cc1nc(-c2ncccn2)sc1C(=O)N1C[C@@H]2[C@H](C1)[C@H]2Oc1cc(C(C)(C)N)cc(-c2ccc(Cl)c(F)c2)n1` [Example 18, ((1R,5S,6s)-6-((4-(2-aminopropan-2-yl)-6-(4-chloro-3-fluorophenyl)pyridin-2-yl)oxy)-3-azabicyclo[3.1.0]hexan-3-yl)(4-methyl-2-(pyrimidin-2-yl)thiazol-5-yl)methanone], the results for the EC50 with RSV-A2-GFP virus (setting [1]) and in the assay with hMPV-GFP virus (setting [2]) were less than 10 nM and 10 to 100 nM, respectively.
Turning to `CC(C)(N)c1cc(O[C@H]2[C@@H]3CN(C(=O)c4cnn(-c5ncccn5)c4)C[C@@H]32)nc(-c2ccc(F)cc2)c1` [Example 63, ((1R,5S,6s)-6-((4-(2-aminopropan-2-yl)-6-(4-fluorophenyl)pyridin-2-yl)oxy)-3-azabicyclo[3.1.0]hexan-3-yl)(1-(pyrimidin-2-yl)-1H-pyrazol-4-yl)methanone], the EC50 with RSV-A2-GFP virus (setting [1]) was less than 10 nM; in the assay on hMPV-GFP virus (setting [2]), more than 100 nM.
As to `CCC(N)c1cc(O[C@H]2[C@@H]3CN(C(=O)c4cn(-c5ncccn5)nc4C)C[C@@H]32)nc(-c2ccc(F)cc2)c1` (stereo partly drawn) [Example 117A, ent-((1R,5S,6s)-6-((4-(1-aminopropyl)-6-(4-fluorophenyl)pyridin-2-yl)oxy)-3-azabicyclo[3.1.0]hexan-3-yl)(3-methyl-1-(pyrimidin-2-yl)-1H-pyrazol-4-yl)methanone], the results for the EC50 with RSV-A2-GFP virus (setting [1]) and with hMPV-GFP virus (setting [2]) were less than 10 nM and more than 100 nM, respectively.
On to `CC(C)(N)c1cc(O[C@H]2[C@@H]3CN(C(=O)c4cn(-c5ncccn5)nc4N)C[C@@H]32)nc(-c2ccc(F)cc2)c1` [Example 70, (3-amino-1-(pyrimidin-2-yl)-1H-pyrazol-4-yl)((1R,5S,6s)-6-((4-(2-aminopropan-2-yl)-6-(4-fluorophenyl)pyridin-2-yl)oxy)-3-azabicyclo[3.1.0]hexan-3-yl)methanone], for which the EC50 in the assay with RSV-A2-GFP virus (setting [1]) was less than 10 nM; in the assay on hMPV-GFP virus (setting [2]), more than 100 nM.
`Cc1nn(-c2ncccn2)cc1C(=O)N1C[C@@H]2[C@H](C1)[C@H]2Oc1cc(C(C)(C)N)cc(N2CCC(C(F)(F)F)CC2C)n1` (stereo partly drawn) [Example 129A, ent-((1R,5S,6s)-6-((4-(2-aminopropan-2-yl)-6-(2-methyl-4-(trifluoromethyl)piperidin-1-yl)pyridin-2-yl)oxy)-3-azabicyclo[3.1.0]hexan-3-yl)(3-methyl-1-(pyrimidin-2-yl)-1H-pyrazol-4-yl)methanone]: the values for the EC50 in the assay with RSV-A2-GFP virus (setting [1]) and in the assay on hMPV-GFP virus (setting [2]) were less than 10 nM and more than 100 nM, respectively.
For `CC(O)c1nn(-c2ncccn2)cc1C(=O)N1C[C@@H]2C(Oc3cc(C(C)(C)N)cc(-c4ccc(F)c(F)c4)n3)[C@@H]2C1` (single isomer, unassigned; enantiomer 2) [Example 96B], in that order: less than 10 nM and more than 100 nM.
Taken in the same sequence, the figures for `Cc1nn(-c2ncccn2)cc1C(=O)N1C[C@@H]2[C@H](C1)[C@H]2Oc1cc(C(C)(C)N)cc(-c2ccc(Cl)cc2)n1` [Example 85, ((1R,5S,6s)-6-((4-(2-aminopropan-2-yl)-6-(4-chlorophenyl)pyridin-2-yl)oxy)-3-azabicyclo[3.1.0]hexan-3-yl)(3-methyl-1-(pyrimidin-2-yl)-1H-pyrazol-4-yl)methanone] were less than 10 nM and 10 to 100 nM.
With `Cc1nc(-c2ncccn2)sc1C(=O)N1C[C@@H]2[C@H]1C[C@H]2Oc1cc(C(C)(C)N)cc(-c2ccc(F)cc2)n1` (single isomer, unassigned) [Example 1B], the EC50 is less than 10 nM in the assay with RSV-A2-GFP virus (read-out: RSV EC50, Calu-1 cells infected with RSV-A2-GFP, 96 hrs, GFP-expressing cells counted) and more than 100 nM in the assay on hMPV-GFP virus (read-out: hMPV EC50, VERO cells infected with hMPV-GFP, 48 hrs, GFP-expressing cells counted).
On to `Cc1nc(-c2ncccn2)sc1C(=O)N1C[C@@H]2[C@H](C1)[C@H]2Oc1cc(C(C)(C)N)cc(-c2ccccc2)n1` [Example 20, ((1R,5S,6s)-6-((4-(2-aminopropan-2-yl)-6-phenylpyridin-2-yl)oxy)-3-azabicyclo[3.1.0]hexan-3-yl)(4-methyl-2-(pyrimidin-2-yl)thiazol-5-yl)methanone], for which the figures for the EC50 in the assay on RSV-A2-GFP virus (setting [1]) and in the assay on hMPV-GFP virus (setting [2]) were less than 10 nM and more than 100 nM, respectively.

Values taken from patent US12643882B2, “Inhibitors of human respiratory syncytial virus and metapneumovirus” (priority 2022, dated 2026).
